How the values were obtained:
BCL6 BTB/POZ domain = BCL6 BTB/POZ domain (Homo sapiens, UniProt P41182, C67R/C84N/C8Q); test: Cocrystal structure with BCL6 BTB/POZ dimer; set-up: hBCL6-Flag 3Cmut (5-129) produced in house; FLAG (C); made in house; settings: via a sulfonate ester
Source text: Crystal structures of SFs 2f and 2s within BCL6 were generated to further investigate the binding mode of the fragments; this used a previously published protocol.[42] […] The twisted conformation of 2s could also represent a premodified state of the protein–SF complex, which may have become disrupted for 2f upon covalent modification with Tyr57 to afford the extended conformation observed.
(§1) The fluorescence intensity data from the individual replicates of each sample type were normalized and identically truncated within GraphPad Prism 5.0.4.11 These values were subsequently fitted to equation (4) corresponding to a Boltzmann sigmoid in order to obtain the melting temperature (“V50”; T m) of the protein:
(§2) Y=BOTTOM+((TOP+BOTTOM)/(1+exp((V50–X)/SLOPE))) (4)
(§3) The three obtained T m values were averaged to give a final T m value in each case. The normalized fluorescence data for the three replicates of each sample were averaged to yield a single dataset for each case, which were then plotted in GraphPad Prism 5.0.4 to give the plots shown in the manuscript.11
(§4) Table S9. Thermal melting temperatures of unmodified and covalently modified BCL6 BTB/POZ domain as determined by differential scanning fluorimetry measurements.
(§5) The arithmetic mean and standard deviation from three replicates are shown.
(§6) Hit Chemotype Protein Species Tm / °C ΔT m / °C […]

BCL6 = target: T1, BCL6 (Homo sapiens, UniProt P41182, C67R/C84N/C8Q); test: Kinetic analyses of covalent modification, intact protein LC-MS; assay type: binding; settings: 0.5 μM BCL6; 5-100 μM SF; 4 °C
T1 construct: hBCL6-Flag-6H-Avi 3Cmut (5–129) produced as part of the GSK/GenScript collaboration; Flag (C); 6H (His6) (C); Avi (C)
Source text: as §1, §2, §3, §4, §5, §6
meta-Substituted Benzamide BCL6 + 2g 70.4 ± 0.3 +11.7
Azetidinyl Fragments BCL6 + 2h 55.5 ± 0.1 −3.2 […]
8.3. Protocol for kinetic analyzes (BCL6) […]
BCL6 BTB domain (BCL65–129(C8Q,C67R,C84N)-FLAG, 10 µM) was incubated with each compound (500 µM, eq. 0.25% v/v DMSO) in 20 mM Tris pH 8.5 and 150 mM NaCl (2 mL) at 20 °C for 6 h. […] The protein-fragment complex was concentrated to >6 mg/mL, as determined by spectrophotometry. […]

Row | Compound | residue covalently conjugated in cocrystal structure (BCL6 BTB/POZ domain) | Ki (BCL6)
1 | CN(C)C(=O)Nc1cccc(CNC(=O)Cc2ccc(S(=O)(=O)F)cc2)c1 [2f] | Tyr57 | 56 µM
2 | CC(=O)Nc1cccc(CNC(=O)Cc2ccc(S(=O)(=O)F)cc2)c1 [2g] |  | 80 µM

Reference: paper PMC10510102, “Efficient Ligand Discovery Using Sulfur(VI) Fluoride Reactive Fragments” (ACS Chemical Biology, 2023)
